Each structure is given as a SMILES string.

As usually defined, the IC50 is the point on the concentration scale where inhibition reaches its midpoint.

The target in one assay is T1, Progesterone receptor (Homo sapiens, UniProt P06401).
T1 sequence (P06401 whole entry): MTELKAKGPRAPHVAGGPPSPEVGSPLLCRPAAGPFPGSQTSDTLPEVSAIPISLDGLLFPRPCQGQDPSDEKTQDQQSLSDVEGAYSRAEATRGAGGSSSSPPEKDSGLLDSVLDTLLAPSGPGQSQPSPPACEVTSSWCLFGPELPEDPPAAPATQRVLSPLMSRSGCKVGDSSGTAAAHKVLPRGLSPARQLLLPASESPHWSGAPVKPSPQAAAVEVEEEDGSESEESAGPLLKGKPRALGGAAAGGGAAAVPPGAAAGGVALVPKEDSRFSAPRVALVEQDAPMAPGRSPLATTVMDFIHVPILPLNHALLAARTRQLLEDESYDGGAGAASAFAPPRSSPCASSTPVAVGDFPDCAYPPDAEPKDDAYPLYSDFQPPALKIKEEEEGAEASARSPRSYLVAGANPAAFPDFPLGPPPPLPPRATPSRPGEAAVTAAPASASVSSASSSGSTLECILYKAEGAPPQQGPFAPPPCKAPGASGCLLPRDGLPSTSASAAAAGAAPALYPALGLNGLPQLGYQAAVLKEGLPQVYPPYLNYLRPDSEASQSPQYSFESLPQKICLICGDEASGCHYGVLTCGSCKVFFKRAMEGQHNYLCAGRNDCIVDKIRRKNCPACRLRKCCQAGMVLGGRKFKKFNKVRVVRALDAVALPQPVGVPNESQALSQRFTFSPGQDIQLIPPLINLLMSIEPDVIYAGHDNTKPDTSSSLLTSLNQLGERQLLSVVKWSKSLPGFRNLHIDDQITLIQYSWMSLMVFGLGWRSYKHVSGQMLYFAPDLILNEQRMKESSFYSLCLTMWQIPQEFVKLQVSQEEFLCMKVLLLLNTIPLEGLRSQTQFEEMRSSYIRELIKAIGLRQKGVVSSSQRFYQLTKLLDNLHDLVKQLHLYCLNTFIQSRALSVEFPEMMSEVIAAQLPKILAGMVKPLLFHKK
The assay is described as follows: Inhibition of progesterone receptor mediated progesterone-induced alkaline phosphatase activity in human T47D cells. It is filed as cell-based.

The target in the next assay is T2, Glucocorticoid receptor (Homo sapiens, UniProt P04150).
T2 sequence (P04150 whole entry): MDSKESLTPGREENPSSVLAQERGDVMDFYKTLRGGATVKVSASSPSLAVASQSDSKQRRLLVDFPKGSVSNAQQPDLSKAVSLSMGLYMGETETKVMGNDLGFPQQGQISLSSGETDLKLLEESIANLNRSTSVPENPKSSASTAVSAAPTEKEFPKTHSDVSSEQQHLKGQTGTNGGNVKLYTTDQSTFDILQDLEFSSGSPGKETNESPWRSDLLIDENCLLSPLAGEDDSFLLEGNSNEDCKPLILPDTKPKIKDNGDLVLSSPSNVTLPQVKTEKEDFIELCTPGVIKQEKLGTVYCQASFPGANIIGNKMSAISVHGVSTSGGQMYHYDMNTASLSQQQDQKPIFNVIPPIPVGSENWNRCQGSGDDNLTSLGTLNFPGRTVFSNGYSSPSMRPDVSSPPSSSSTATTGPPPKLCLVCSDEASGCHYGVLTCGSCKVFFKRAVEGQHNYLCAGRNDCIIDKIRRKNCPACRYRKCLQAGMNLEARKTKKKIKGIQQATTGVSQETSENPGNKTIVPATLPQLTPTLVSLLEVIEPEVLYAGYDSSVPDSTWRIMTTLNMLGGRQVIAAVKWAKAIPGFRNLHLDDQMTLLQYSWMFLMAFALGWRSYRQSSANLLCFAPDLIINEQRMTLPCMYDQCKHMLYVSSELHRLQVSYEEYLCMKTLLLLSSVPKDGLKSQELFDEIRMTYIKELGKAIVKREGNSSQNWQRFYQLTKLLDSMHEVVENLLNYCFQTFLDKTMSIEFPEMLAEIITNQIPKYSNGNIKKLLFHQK
The assay is described as follows: Antagonist activity at cloned glucocorticoid receptor-ligand binding domain expressed in african green monkey COS7 cells by GAL4 luciferase reporter assay. It is filed as cell-based, COS-7. (In general: Reporter assays use an easily measured gene product as a stand-in for the process of interest.)

Another assay addresses T3, Androgen receptor (Homo sapiens, UniProt P10275).
T3 sequence (P10275 whole entry): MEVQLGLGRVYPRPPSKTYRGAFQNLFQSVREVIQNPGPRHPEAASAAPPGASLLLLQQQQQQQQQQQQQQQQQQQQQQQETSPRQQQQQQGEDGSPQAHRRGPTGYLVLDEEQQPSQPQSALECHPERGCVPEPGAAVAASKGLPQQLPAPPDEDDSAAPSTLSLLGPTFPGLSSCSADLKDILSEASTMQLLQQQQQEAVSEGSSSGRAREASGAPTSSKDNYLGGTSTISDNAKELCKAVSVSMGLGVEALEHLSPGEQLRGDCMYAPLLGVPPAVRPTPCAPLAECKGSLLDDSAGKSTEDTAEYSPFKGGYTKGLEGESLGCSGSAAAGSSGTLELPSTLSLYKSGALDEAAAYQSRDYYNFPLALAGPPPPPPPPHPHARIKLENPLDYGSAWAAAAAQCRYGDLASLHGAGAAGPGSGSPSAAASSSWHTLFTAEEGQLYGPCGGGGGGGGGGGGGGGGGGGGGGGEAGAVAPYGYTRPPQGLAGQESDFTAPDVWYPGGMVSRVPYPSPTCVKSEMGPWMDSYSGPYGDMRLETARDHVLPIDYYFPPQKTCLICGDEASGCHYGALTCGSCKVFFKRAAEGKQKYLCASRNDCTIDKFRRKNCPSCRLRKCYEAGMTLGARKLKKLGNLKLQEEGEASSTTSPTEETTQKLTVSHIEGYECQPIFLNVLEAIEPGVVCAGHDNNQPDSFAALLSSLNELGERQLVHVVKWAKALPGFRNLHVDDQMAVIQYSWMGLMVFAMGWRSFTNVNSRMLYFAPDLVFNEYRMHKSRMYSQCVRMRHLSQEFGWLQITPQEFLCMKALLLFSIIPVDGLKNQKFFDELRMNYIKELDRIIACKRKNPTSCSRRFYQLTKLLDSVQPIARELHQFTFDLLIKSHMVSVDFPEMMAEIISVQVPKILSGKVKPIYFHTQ

Description for Androgen receptor: Antagonist activity at cloned androgen receptor-ligand binding domain expressed in african green monkey COS7 cells by two hybrid luciferase assay

For the compound `CC1(C)OCC(=O)Nc2ccc(-c3cc(F)cc(C#N)c3)cc21`, the half-maximal inhibitory concentration (IC50) on Progesterone receptor was 25 nM; on Glucocorticoid receptor it was above 3000 nM; against Androgen receptor, above 3000 nM.
As for `CCC1(c2ccco2)OCC(=O)Nc2ccc(-c3cc(F)cc(C#N)c3)cc21` (centres undefined), the IC50 was 11.8 nM against Progesterone receptor, 190 nM at Glucocorticoid receptor and 690 nM against Androgen receptor.
Take `N#Cc1cc(F)cc(-c2ccc3c(c2)C(c2ccco2)(c2ccco2)OCC(=O)N3)c1`: the IC50 was 13.3 nM on Progesterone receptor, 1300 nM at Glucocorticoid receptor and above 3000 nM against Androgen receptor.

These data come from ChEMBL document CHEMBL1157410, “7-aryl 1,5-dihydro-benzo[e][1,4]oxazepin-2-ones and analogs as non-steroidal progesterone receptor antagonists” (Bioorg Med Chem, 2008).
